From PMC7316994, “In Vitro Pharmacological Profile of a New Small Molecule Bradykinin B2 Receptor Antagonist” (Frontiers in Pharmacology, 2020)
Where “and” joins values, the source holds several entries; their conditions need not be identical. Identical values can stand only once.

Columns and labels:
mouse B2 receptor = target: T1, mouse B2 receptor (Mus musculus, UniProt P32299); assay: Ca^2+ mobilization assay, HEK293T cells; assay type: cell-based; conditions: BK at EC80 0.53 nM, n=1
T1 construct: host or cells: HEK293T cells
T1 sequence (P32299 1-392): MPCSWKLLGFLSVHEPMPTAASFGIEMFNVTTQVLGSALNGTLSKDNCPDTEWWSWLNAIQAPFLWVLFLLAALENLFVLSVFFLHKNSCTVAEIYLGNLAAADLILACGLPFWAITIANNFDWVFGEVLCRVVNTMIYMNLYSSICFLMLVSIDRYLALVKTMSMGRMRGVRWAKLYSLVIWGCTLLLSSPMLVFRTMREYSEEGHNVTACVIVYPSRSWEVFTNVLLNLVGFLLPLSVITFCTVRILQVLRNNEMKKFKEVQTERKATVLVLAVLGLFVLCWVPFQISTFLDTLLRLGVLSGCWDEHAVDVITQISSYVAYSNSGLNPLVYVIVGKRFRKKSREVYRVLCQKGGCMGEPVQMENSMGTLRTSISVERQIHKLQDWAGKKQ

dog B2 receptor = target: T2, dog B2 receptor (Canis lupus familiaris, UniProt Q9BDQ4); assay: Ca^2+ mobilization assay, HEK293T cells; assay type: cell-based; conditions: Dog; BK at EC80 1.86 nM; n=1; read-out: IC50 (nM) Mean
T2 sequence (Q9BDQ4 1-392): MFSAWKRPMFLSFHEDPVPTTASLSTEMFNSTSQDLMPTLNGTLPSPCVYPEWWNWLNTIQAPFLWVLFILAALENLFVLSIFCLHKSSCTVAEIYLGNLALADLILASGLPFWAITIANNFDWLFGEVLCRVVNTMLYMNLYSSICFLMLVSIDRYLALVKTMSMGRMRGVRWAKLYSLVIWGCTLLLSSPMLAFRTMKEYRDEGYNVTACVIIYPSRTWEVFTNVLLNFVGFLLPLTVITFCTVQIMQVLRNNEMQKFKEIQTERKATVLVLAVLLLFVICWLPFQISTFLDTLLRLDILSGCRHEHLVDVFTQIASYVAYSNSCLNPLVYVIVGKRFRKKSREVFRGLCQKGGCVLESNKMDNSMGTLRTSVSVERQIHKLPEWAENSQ

rat B2 receptor = target: T3, rat B2 receptor (Rattus norvegicus, UniProt P25023); assay: Ca^2+ mobilization assay, HEK293T cells; assay type: cell-based; conditions: BK at EC80 4.32 nM
T3 construct: host or cells: HEK293T cells
T3 sequence (P25023 1-396): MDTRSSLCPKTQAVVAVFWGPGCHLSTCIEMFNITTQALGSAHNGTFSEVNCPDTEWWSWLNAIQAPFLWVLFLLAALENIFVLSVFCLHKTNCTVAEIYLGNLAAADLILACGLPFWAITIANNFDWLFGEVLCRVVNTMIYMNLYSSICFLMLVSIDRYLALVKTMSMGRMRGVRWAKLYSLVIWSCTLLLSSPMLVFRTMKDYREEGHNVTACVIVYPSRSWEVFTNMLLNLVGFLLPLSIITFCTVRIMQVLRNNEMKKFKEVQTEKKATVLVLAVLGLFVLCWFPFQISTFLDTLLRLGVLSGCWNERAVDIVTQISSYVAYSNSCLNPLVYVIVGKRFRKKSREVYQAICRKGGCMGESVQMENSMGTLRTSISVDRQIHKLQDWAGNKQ

Neurokinin NK2 = target: T4, Neurokinin NK2 (Homo sapiens, UniProt P21452); design: method as in FDA Pharmacology Review Icatibant; conditions: ref FDA Pharmacology Review Icatibant; read-out: IC50, binding to NK2 receptors; cited from earlier work
T4 construct: host or cells: CHO cells
T4 sequence (P21452 1-398): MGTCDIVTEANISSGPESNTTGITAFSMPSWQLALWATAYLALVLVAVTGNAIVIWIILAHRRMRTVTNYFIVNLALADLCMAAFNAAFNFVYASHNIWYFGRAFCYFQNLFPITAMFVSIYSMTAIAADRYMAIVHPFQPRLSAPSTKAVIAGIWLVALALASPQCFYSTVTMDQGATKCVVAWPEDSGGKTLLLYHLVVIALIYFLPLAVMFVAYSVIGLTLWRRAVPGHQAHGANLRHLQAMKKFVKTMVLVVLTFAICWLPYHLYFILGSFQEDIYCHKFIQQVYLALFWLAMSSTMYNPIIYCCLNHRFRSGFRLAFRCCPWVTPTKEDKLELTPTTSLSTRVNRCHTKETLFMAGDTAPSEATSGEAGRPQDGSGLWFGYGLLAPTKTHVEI

[1] = target: T5, endogenous human B2 receptor (Homo sapiens, UniProt P30411); assay: human isolated umbilical vein contractility assay, BK-induced contraction; conditions: for Maximal BK-induced response in absolute force units ± S.E.M.: vehicle: Icatibant 1.90, Compound 1 […]
T5 construct: BK-induced contraction at endogenous human B2 receptor in the umbilical vein model; from tissue; host or cells: human umbilical vein rings (donor cords after elective caesarean section)
T5 sequence (P30411 1-391): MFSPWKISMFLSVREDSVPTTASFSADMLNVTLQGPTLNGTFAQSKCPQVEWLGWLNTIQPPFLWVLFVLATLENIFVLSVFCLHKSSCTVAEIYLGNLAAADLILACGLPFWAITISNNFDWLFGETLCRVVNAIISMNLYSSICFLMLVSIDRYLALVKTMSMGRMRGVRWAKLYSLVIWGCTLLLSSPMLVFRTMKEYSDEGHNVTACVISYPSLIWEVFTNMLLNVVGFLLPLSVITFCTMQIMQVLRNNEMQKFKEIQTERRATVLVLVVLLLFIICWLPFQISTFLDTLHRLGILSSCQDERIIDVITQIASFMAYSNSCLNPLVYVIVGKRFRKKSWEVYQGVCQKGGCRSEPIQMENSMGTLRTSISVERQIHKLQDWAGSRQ

[2] = target: T5, endogenous human B2 receptor; design: method as in Marceau et al., 1994; conditions: umbilical vein; ref Marceau et al., 1994; cited from earlier work
[3] = target: T6, cynomolgus monkey B2 receptor (Macaca fascicularis, UniProt A0A7N9CWN6); assay: cell-based
T6 sequence (A0A7N9CWN6 1-391): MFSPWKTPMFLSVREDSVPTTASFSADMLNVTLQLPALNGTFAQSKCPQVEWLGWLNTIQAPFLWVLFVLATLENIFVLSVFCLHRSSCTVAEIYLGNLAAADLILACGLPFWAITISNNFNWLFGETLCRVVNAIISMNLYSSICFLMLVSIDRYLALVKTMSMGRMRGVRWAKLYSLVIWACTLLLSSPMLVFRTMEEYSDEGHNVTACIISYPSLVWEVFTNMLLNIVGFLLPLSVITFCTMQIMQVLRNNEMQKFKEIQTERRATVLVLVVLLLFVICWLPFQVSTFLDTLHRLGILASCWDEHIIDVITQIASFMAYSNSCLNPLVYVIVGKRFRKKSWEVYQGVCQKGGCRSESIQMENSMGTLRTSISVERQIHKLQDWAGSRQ

kinin B1 receptor = target: T7, kinin B1 receptor (Homo sapiens, UniProt P46663); assay: umbilical vein, Sar-[D-Phe^8]des-Arg^9-BK-induced contraction; conditions: 1 μM
T7 construct: during the 3-hour incubation period to upregulate the expression of B1; from tissue; host or cells: human umbilical vein rings pre-incubated with interleukin-1β and tumor necrosis factor-α
T7 sequence (P46663 whole entry): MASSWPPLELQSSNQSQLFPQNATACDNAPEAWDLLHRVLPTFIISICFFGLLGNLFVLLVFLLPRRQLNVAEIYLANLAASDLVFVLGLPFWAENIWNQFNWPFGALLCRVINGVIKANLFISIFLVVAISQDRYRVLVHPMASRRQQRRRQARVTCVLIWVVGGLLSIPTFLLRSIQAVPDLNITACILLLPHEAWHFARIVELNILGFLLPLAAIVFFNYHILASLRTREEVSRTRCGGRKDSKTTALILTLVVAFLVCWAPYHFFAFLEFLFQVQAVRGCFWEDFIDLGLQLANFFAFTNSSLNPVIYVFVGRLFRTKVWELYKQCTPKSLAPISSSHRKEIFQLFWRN

## NC(N)=NCCC[C@@H](N)C(=O)N[C@@H](CCCN=C(N)N)C(=O)N1CCC[C@H]1C(=O)N1C[C@H](O)C[C@H]1C(=O)NCC(=O)N[C@@H](Cc1cccs1)C(=O)N[C@@H](CO)C(=O)N1Cc2ccccc2C[C@@H]1C(=O)N1[C@H](C(=O)N[C@@H](CCCN=C(N)N)C(=O)O)C[C@@H]2CCCC[C@@H]21 [icatibant, reference compound]
Mouse B2 receptor
  IC50: 15.5 nM
Dog B2 receptor
  IC50: 87.1 nM
Rat B2 receptor
  IC50: 37.4 nM
Neurokinin NK2
  IC50: 420 nM
[1]; BK concentration-effect curves, Emax
  type of antagonism of BK: competitive (surmountable) antagonist
[1]; Schild regression, Pharm/PCS, ± S.E.M. where given
  Schild plot slope: -0.85 ± 0.16 and −0.85
[1]; antagonist 10 nM, Compound 2 2.25, Compound 3 1.52
  Maximal BK-induced response in absolute force units ± S.E.M.: 1.47 ± 0.19 grams-weight
[1]; antagonist 100 nM, Compound 2 2.25, Compound 3 1.52
  Maximal BK-induced response in absolute force units ± S.E.M.: 1.50 ± 0.27 grams-weight
[1]; antagonist 1 μM, Compound 2 2.25, Compound 3 1.52
  Maximal BK-induced response in absolute force units ± S.E.M.: 1.40 ± 0.22 grams-weight
[1]; antagonist 10 μM, Compound 2 2.25
  Maximal BK-induced response in absolute force units ± S.E.M.: 1.27 ± 0.17 grams-weight
[1]; potency from pA2
  pA2 value converted into nM: 8.71 nM and 8.7 nM
[2]
  pA2, previously reported value: 8.2
[3]
  IC50: 17.1 nM
  Kb: 4.06 nM
Kinin B1 receptor
  effect on contraction by B1 receptor agonist Sar-[D-Phe^8]des-Arg^9-BK: failed to antagonize
